# Calls of active or inactive are those of the source. The rule behind the calls is not given here.
# How the values were obtained:
# Toll-like receptor 4 [1] = molecular target: T1, Toll-like receptor 4 (Homo sapiens, UniProt O00206); experiment: Antagonist activity at TLR4 in human THP1 cells assessed as inhibition of LPS-stimulated IL-6 mRNA level at 10 uM after 16 hrs by RT-PCR method; assay type: cell-based
# Toll-like receptor 4 [2] = molecular target: T1, Toll-like receptor 4; experiment: Antagonist activity at TLR4 in human THP1 cells assessed as inhibition of LPS-stimulated RANTES mRNA level at 10 uM after 16 hrs by RT-PCR method; assay type: cell-based
# [3] = molecular target: Toll-like receptor 3 (Homo sapiens) (UniProt O15455); experiment: Antagonist activity at TLR3 in human THP1 cells assessed as inhibition of poly IC-stimulated IL-6 mRNA level at 10 uM after 16 hrs by RT-PCR method; assay type: cell-based
# [4] = molecular target: Toll-like receptor 3 (Homo sapiens) (UniProt O15455); experiment: Antagonist activity at TLR3 in human THP1 cells assessed as inhibition of poly IC-stimulated RANTES mRNA level at 10 uM after 16 hrs by RT-PCR method; assay type: cell-based
# [5] = molecular target: Toll-like receptor 2 (Homo sapiens) (UniProt O60603); experiment: Antagonist activity at TLR2 in human THP1 cells assessed as inhibition of PGN-stimulated IL-6 mRNA level at 10 uM after 16 hrs by RT-PCR method; assay type: cell-based
# [6] = molecular target: Toll-like receptor 2 (Homo sapiens) (UniProt O60603); experiment: Antagonist activity at TLR2 in human THP1 cells assessed as inhibition of PGN-stimulated RANTES mRNA level at 10 uM after 16 hrs by RT-PCR method; assay type: cell-based
# [7] = molecular target: Toll-like receptor 2 (Homo sapiens) (UniProt O60603); experiment: Antagonist activity at TLR2 in human THP1 cells assessed as inhibition of PGN-stimulated IL-1beta level at 10 uM by bead based immunoassay; assay type: cell-based
# [8] = molecular target: Transcription factor p65 (Homo sapiens) (UniProt Q04206); experiment: Upregulation of NF-kB p65 phosphorylation (unknown origin) expressed in human AD293 cells at 10 uM after 3 hrs by Western blot analysis; assay type: cell-based
# Toll-like receptor 4 [9] = molecular target: T1, Toll-like receptor 4; experiment: Antagonist activity at TLR4 in human THP1 cells assessed as inhibition of LPS-stimulated NFkappaB p65 protein expression at 10 uM after 3 hrs by Western blot analysis; assay type: cell-based
# Toll-like receptor 4 [10] = molecular target: T1, Toll-like receptor 4; experiment: Antagonist activity at TLR4 in human THP1 cells assessed as increase in LPS-stimulated NFkappaB p65 phosphorylation at 10 uM after 3 hrs by Western blot analysis; assay type: cell-based
# THP-1 [11] = experiment: Downregulation of IkBalpha protein expression in LPS-stimulated human THP1 cells at 10 uM after 3 hrs by Western blot analysis; assay type: functional, cell-based
# THP-1 [12] = experiment: Downregulation of IkBalpha protein expression in human THP1 cells at 10 uM after 3 hrs by Western blot analysis; assay type: functional, cell-based
# Toll-like receptor 4 [13] = molecular target: T1, Toll-like receptor 4; experiment: Antagonist activity at TLR4 in human THP1 cells assessed as inhibition of LPS-stimulated NF-kB canonical signaling pathway by measuring decrease in IkBalpha phosphorylation at 10 uM after 3 hrs by Western blot analysis; assay type: cell-based
# THP-1 [14] = experiment: Upregulation of IKKalpha protein expression in LPS-stimulated human THP1 cells at 10 uM after 3 hrs by Western blot analysis; assay type: functional, cell-based
# Toll-like receptor 4 [15] = molecular target: T1, Toll-like receptor 4; experiment: Antagonist activity at TLR4 in human THP1 cells assessed as inhibition of LPS-stimulated NF-kB non-canonical signaling pathway by measuring decrease in p100/p52 phosphorylation at 10 uM after 3 hrs by Western blot analysis; assay type: cell-based
# [16] = molecular target: T2, Nuclear factor NF-kappa-B p100 subunit (Homo sapiens) (UniProt Q00653); experiment: Effect on p100 phosphorylation in human THP1 cells at 10 uM after 3 hrs by Western blot analysis; assay type: cell-based
# T2 sequence (whole entry): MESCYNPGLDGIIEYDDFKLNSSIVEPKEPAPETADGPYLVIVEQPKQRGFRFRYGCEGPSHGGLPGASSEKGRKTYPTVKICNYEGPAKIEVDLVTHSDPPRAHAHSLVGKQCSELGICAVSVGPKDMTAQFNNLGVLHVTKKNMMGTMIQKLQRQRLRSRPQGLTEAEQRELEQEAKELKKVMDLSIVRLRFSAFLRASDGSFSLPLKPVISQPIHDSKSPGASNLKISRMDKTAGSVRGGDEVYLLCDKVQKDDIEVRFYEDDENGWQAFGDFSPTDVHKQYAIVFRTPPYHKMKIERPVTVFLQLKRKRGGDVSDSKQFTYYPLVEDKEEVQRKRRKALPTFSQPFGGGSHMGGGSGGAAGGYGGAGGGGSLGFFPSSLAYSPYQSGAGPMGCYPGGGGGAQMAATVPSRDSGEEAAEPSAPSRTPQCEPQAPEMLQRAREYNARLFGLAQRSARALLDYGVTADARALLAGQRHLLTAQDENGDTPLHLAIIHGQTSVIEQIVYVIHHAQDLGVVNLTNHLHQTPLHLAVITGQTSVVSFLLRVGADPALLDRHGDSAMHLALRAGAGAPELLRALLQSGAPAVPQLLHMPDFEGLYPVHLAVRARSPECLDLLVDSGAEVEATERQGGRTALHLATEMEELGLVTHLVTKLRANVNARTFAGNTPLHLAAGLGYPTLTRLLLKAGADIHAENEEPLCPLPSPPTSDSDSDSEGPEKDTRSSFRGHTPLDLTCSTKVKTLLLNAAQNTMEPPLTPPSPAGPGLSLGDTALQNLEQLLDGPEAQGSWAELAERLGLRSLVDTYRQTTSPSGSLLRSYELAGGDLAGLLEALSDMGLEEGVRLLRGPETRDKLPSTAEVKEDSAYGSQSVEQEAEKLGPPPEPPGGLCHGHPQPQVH
# Toll-like receptor 4 [17] = molecular target: T1, Toll-like receptor 4; experiment: Antagonist activity at TLR4 in human THP1 cells assessed as inhibition of LPS-stimulated IL-6 mRNA level after 16 hrs by RT-PCR method; assay type: cell-based
# Toll-like receptor 4 [18] = molecular target: T1, Toll-like receptor 4; experiment: Antagonist activity at TLR4 in human THP1 cells assessed as inhibition of LPS-stimulated RANTES mRNA level after 16 hrs by RT-PCR method; assay type: cell-based
# [19] = molecular target: Toll-like receptor 3 (Homo sapiens) (UniProt O15455); experiment: Antagonist activity at TLR3 in human THP1 cells assessed as inhibition of poly IC-stimulated IL-6 mRNA level after 16 hrs by RT-PCR method; assay type: cell-based
# [20] = molecular target: Toll-like receptor 3 (Homo sapiens) (UniProt O15455); experiment: Antagonist activity at TLR3 in human THP1 cells assessed as inhibition of poly IC-stimulated RANTES mRNA level after 16 hrs by RT-PCR method; assay type: cell-based
# [21] = molecular target: Toll-like receptor 2 (Homo sapiens) (UniProt O60603); experiment: Antagonist activity at TLR2 in human THP1 cells assessed as inhibition of PGN-stimulated IL-6 mRNA level after 16 hrs by RT-PCR method; assay type: cell-based
# [22] = molecular target: Toll-like receptor 2 (Homo sapiens) (UniProt O60603); experiment: Antagonist activity at TLR2 in human THP1 cells assessed as inhibition of PGN-stimulated RANTES mRNA level after 16 hrs by RT-PCR method; assay type: cell-based
# T1 sequence (O00206 whole entry): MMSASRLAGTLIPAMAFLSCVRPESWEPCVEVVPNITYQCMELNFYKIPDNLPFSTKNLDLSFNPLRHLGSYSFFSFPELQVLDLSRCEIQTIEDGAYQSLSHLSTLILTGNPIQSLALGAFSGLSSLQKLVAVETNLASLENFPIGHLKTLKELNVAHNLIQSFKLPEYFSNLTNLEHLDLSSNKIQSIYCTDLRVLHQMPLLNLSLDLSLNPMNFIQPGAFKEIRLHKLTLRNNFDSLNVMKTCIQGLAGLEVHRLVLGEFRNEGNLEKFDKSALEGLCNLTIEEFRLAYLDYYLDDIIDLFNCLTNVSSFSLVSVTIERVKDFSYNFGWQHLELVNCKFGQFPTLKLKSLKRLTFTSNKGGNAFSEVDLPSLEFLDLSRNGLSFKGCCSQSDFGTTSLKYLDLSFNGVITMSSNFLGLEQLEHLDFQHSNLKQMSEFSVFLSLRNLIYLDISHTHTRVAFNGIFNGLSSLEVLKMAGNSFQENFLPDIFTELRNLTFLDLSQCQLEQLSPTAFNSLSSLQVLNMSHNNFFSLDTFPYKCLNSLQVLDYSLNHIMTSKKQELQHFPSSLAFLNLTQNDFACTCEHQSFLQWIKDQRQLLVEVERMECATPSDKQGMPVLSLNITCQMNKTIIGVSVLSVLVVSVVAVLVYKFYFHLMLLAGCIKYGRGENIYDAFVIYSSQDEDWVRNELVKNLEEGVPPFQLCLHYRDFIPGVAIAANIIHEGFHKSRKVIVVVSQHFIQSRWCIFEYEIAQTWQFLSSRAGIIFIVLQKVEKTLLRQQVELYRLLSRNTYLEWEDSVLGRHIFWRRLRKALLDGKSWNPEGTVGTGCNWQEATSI
# Chain of Toll-like receptor 2 (Homo sapiens) (O60603 whole entry): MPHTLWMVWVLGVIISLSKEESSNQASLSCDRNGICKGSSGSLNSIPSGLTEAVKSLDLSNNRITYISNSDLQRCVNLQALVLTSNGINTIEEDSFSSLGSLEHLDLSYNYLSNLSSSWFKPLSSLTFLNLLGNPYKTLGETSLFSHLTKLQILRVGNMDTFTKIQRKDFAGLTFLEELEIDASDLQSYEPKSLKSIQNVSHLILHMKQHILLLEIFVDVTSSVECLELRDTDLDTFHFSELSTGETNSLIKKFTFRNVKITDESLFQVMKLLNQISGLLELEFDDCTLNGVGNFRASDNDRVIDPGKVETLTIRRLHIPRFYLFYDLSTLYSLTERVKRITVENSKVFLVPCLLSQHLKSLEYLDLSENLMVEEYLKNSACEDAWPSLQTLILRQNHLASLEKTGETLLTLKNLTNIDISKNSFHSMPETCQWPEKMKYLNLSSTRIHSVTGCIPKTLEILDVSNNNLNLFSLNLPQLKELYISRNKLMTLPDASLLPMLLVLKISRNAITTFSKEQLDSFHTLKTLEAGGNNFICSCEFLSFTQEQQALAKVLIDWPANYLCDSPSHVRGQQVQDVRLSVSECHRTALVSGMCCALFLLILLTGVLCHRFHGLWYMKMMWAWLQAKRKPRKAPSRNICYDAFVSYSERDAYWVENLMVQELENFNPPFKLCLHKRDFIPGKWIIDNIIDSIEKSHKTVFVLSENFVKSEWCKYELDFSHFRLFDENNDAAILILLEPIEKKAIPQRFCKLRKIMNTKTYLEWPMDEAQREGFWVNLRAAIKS
# Chain of Toll-like receptor 3 (Homo sapiens) (O15455 whole entry): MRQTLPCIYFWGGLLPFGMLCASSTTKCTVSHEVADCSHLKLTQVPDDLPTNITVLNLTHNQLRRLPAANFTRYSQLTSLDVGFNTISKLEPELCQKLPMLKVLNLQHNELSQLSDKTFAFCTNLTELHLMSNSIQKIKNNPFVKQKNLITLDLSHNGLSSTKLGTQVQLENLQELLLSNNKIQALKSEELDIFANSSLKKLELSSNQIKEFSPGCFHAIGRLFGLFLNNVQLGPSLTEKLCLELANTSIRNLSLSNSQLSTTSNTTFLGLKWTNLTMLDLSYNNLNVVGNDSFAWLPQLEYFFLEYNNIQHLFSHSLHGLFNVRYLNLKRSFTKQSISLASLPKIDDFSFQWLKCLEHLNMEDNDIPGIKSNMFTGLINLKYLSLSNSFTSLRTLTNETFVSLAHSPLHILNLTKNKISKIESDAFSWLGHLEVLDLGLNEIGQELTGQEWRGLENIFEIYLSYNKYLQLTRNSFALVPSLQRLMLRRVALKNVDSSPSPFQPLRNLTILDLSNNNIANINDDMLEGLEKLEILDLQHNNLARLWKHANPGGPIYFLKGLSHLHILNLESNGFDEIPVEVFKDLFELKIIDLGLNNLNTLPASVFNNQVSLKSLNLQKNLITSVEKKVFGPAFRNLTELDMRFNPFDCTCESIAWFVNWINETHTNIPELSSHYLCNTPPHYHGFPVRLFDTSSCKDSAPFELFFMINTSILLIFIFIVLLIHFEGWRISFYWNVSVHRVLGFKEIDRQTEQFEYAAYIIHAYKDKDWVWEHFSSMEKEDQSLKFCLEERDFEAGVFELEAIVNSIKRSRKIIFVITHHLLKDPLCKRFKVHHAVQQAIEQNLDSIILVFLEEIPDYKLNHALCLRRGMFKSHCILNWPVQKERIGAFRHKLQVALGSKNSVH
# Chain of Transcription factor p65 (Homo sapiens) (Q04206 whole entry): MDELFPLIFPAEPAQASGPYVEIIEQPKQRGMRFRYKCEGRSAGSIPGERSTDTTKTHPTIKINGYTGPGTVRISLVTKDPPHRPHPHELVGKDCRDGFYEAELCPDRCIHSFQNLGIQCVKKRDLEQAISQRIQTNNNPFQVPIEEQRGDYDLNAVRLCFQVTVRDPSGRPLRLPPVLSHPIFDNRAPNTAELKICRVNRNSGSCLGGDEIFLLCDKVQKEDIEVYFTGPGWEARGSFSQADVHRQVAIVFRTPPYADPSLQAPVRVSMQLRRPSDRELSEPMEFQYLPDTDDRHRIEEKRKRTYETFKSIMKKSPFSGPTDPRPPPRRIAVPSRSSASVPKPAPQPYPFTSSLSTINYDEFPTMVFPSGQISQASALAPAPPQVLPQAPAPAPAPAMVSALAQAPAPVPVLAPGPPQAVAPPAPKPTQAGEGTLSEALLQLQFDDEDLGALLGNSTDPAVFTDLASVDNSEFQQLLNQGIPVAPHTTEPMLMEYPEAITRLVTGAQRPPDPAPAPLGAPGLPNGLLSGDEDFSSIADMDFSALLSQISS
smiles,measurement,setting,value
CC(=O)[C@]1(O)CC[C@@]2(O)[C@]1(C)[C@H](OC(=O)c1ccc(O)cc1)C[C@@H]1[C@@]3(C)CC[C@H](OC(=O)CCl)CC3=CC[C@]12O,inhibition,Toll-like receptor 4 [1],Active
same,inhibition,Toll-like receptor 4 [2],Active
same,inhibition,[3],Active
same,inhibition,[4],Active
same,inhibition,[5],Active
same,inhibition,[6],Active
same,inhibition,[7],Active
same,Activity,[8],Active
same,inhibition,Toll-like receptor 4 [9],Active
same,inhibition,Toll-like receptor 4 [10],inactive
same,Activity,THP-1 [11],Active
same,Activity,THP-1 [12],Active
same,inhibition,Toll-like receptor 4 [13],inactive
same,Activity,THP-1 [14],Active
same,inhibition,Toll-like receptor 4 [15],inactive
same,Activity,[16],inactive
COc1ccc(/C=C/C(=O)O[C@H]2CC[C@@]3(C)C(=CC[C@]4(O)[C@@H]3C[C@@H](OC(=O)/C=C(\C)C(C)C)[C@@]3(C)[C@]4(O)CC[C@@]3(O)C(C)=O)C2)cc1,inhibition,Toll-like receptor 4 [17],Dose-dependent effect
same,inhibition,Toll-like receptor 4 [18],Dose-dependent effect
same,inhibition,[19],Dose-dependent effect
same,inhibition,[20],Dose-dependent effect
same,inhibition,[21],Dose-dependent effect
same,inhibition,[22],Dose-dependent effect
same,inhibition,[7],Active
same,inhibition,Toll-like receptor 4 [10],Active
same,Activity,THP-1 [14],Active
same,inhibition,Toll-like receptor 4 [15],inactive
same,Activity,[16],inactive

# From ChEMBL document CHEMBL4033685, “C21-steroidal pregnane sapogenins and their derivatives as anti-inflammatory agents” (Bioorg Med Chem, 2017)
